Like-named read-outs stand apart in the source and are kept apart here.
How the values were obtained:
[1] = test system: Key Broadleaf Weed and Crop Species; experiment: Post-Emergent Test II (Table 5); type: in vivo; conditions: post-emergence, 336 h; for pest or weed control at 70 g/ha: application rate 70 (kg ai/ha; footnote: g ai/ha); for pest or weed control at 140 g/ha: application rate 140 (kg ai/ha; footnote: g ai/ha)
Method in brief: (§1)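 Visual injury ratings (0 = no injury, 100 = complete kill) were taken 14 days after treatment relative to untreated plants. Seedlings at the first or second true leaf stage received an overhead spray at 187 L/ha, and solvent-blank sprayed plants served as controls.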

[2] = test system: Key Grass and Sedge Weeds as well as Grass Crops; experiment: Post-Emergent Test II (Table 6); type: in vivo; conditions: post-emergence, 336 h, 14 days after application; for pest or weed control at 70 g/ha: 70 g ai/ha; for pest or weed control at 140 g/ha: 140 g ai/ha
Method in brief: as §1

[3] = Abutilon theophrasti, ABUTH: velvetleaf (Abutilon theophrasti), read-out: Visual Growth Reduction (%) 14 Days After Application ABUTH
[4] = Amaranthus retroflexus, AMARE: redroot pigweed (Amaranthus retroflexus), read-out: Visual Growth Reduction (%) 14 Days After Application AMARE
[5] = Brassica napus, BRSSS: oilseed rape, canola (Brassica napus), read-out: Visual Growth Reduction (%) 14 Days After Application BRSSS
[6] = Chenopodium album, CHEAL: lambsquarters (Chenopodium album), read-out: Visual Growth Reduction (%) 14 Days After Application CHEAL
[7] = Euphorbia heterophylla, EPHHL: wild poinsettia (Euphorbia heterophylla), read-out: Visual Growth Reduction (%) 14 Days After Application EPHHL
[8] = Helianthus annuus, HELAN: sunflower (Helianthus annuus), read-out: Visual Growth Reduction (%) 14 Days After Application HELAN
[9] = Viola tricolor, VIOTR: wild pansy (Viola tricolor), read-out: Visual Growth Reduction (%) 14 Days After Application VIOTR
[10] = CYPSS, read-out: Visual Growth Reduction (%) 14 Days After Application CYPSS
[11] = DIGSA: crabgrass (Digitaria sanguinalis), read-out: Visual Growth Reduction (%) 14 Days After Application DIGSA
[12] = ECHSS, read-out: Visual Growth Reduction (%) 14 Days After Application ECHSS
[13] = ORYSS (crop), read-out: Visual Growth Reduction (%) 14 Days After Application ORYSS
[14] = SETFA: giant foxtail (Setaria faberi), read-out: Visual Growth Reduction (%) 14 Days After Application SETFA
[15] = SORVU: grain sorghum (Sorghum vulgare), read-out: Visual Growth Reduction (%) 14 Days After Application SORVU
[16] = TRZSS (crop), read-out: Visual Growth Reduction (%) 14 Days After Application TRZSS
[17] = ZEAMX: maize, corn (Zea mays), read-out: Visual Growth Reduction (%) 14 Days After Application ZEAMX

## Cc1c(F)c(Cl)cc(F)c1-c1cc(N)c(Cl)c(C(=O)O)n1 [Compound 92, 4-amino-3-chloro-6-(4-chloro-3,6-difluoro-2-methylphenyl)picolinic acid]
other
  melting point: 160 to 162 °C
[1]; [3]
  pest or weed control at 70 g/ha: 95 to 100%
  pest or weed control at 140 g/ha: 95 to 100%
[1]; [4]
  pest or weed control at 70 g/ha: 95 to 100%
  pest or weed control at 140 g/ha: 95 to 100%
[1]; [5]
  pest or weed control at 70 g/ha: 95 to 100%
  pest or weed control at 140 g/ha: 95 to 100%
[1]; [6]
  pest or weed control at 70 g/ha: 95 to 100%
  pest or weed control at 140 g/ha: 95 to 100%
[1]; [7]
  pest or weed control at 70 g/ha: 0 to 29%
  pest or weed control at 140 g/ha: 30 to 44%
[1]; [8]
  pest or weed control at 70 g/ha: 95 to 100%
  pest or weed control at 140 g/ha: 95 to 100%
[1]; [9]
  pest or weed control at 70 g/ha: 60 to 74%
  pest or weed control at 140 g/ha: 75 to 84%
[2]; [10]
  pest or weed control at 70 g/ha: 0 to 29%
  pest or weed control at 140 g/ha: 0 to 29%
[2]; [11]
  pest or weed control at 70 g/ha: 0 to 29%
  pest or weed control at 140 g/ha: 0 to 29%
[2]; [12]
  pest or weed control at 70 g/ha: 0 to 29%
  pest or weed control at 140 g/ha: 0 to 29%
[2]; [13]
  pest or weed control at 70 g/ha: 0 to 29%
  pest or weed control at 140 g/ha: 0 to 29%
[2]; [14]
  pest or weed control at 70 g/ha: 0 to 29%
  pest or weed control at 140 g/ha: 0 to 29%
[2]; [15]
  pest or weed control at 70 g/ha: 0 to 29%
  pest or weed control at 140 g/ha: 0 to 29%
[2]; [16]
  pest or weed control at 70 g/ha: 30 to 44%
  pest or weed control at 140 g/ha: 60 to 74%
[2]; [17]
  pest or weed control at 70 g/ha: 0 to 29%
  pest or weed control at 140 g/ha: 0 to 29%

## CCc1c(-c2cc(N)c(Cl)c(C(=O)O)n2)ccc(Cl)c1F [Compound 86]
other
  melting point: 144 to 146 °C
[1]; [3]
  pest or weed control at 70 g/ha: 45 to 59%
  pest or weed control at 140 g/ha: 0 to 29%
[1]; [4]
  pest or weed control at 70 g/ha: 85 to 94%
  pest or weed control at 140 g/ha: 85 to 94%
[1]; [5]
  pest or weed control at 70 g/ha: 75 to 84%
  pest or weed control at 140 g/ha: 85 to 94%
[1]; [6]
  pest or weed control at 70 g/ha: 85 to 94%
  pest or weed control at 140 g/ha: 85 to 94%
[1]; [7]
  pest or weed control at 70 g/ha: 0 to 29%
  pest or weed control at 140 g/ha: 0 to 29%
[1]; [8]
  pest or weed control at 70 g/ha: 75 to 84%
  pest or weed control at 140 g/ha: 75 to 84%
[1]; [9]
  pest or weed control at 70 g/ha: 0 to 29%
  pest or weed control at 140 g/ha: 0 to 29%
[2]; [10]
  pest or weed control at 70 g/ha: 0 to 29%
  pest or weed control at 140 g/ha: 0 to 29%
[2]; [11]
  pest or weed control at 70 g/ha: 0 to 29%
  pest or weed control at 140 g/ha: 0 to 29%
[2]; [12]
  pest or weed control at 70 g/ha: 0 to 29%
  pest or weed control at 140 g/ha: 0 to 29%
[2]; [13]
  pest or weed control at 70 g/ha: 0 to 29%
  pest or weed control at 140 g/ha: 0 to 29%
[2]; [14]
  pest or weed control at 70 g/ha: 0 to 29%
  pest or weed control at 140 g/ha: 0 to 29%
[2]; [15]
  pest or weed control at 70 g/ha: 0 to 29%
  pest or weed control at 140 g/ha: 0 to 29%
[2]; [16]
  pest or weed control at 70 g/ha: 0 to 29%
  pest or weed control at 140 g/ha: 0 to 29%
[2]; [17]
  pest or weed control at 70 g/ha: 0 to 29%
  pest or weed control at 140 g/ha: 0 to 29%

## COC(=O)c1nc(-c2ccc(F)nc2)c(F)c(N)c1Cl [Compound 23]
other
  melting point: 167 to 168 °C
[1]; [3]
  pest or weed control at 70 g/ha: 75 to 84%
  pest or weed control at 140 g/ha: 85 to 94%
[1]; [4]
  pest or weed control at 70 g/ha: 95 to 100%
  pest or weed control at 140 g/ha: 95 to 100%
[1]; [5]
  pest or weed control at 70 g/ha: 45 to 59%
  pest or weed control at 140 g/ha: 75 to 84%
[1]; [6]
  pest or weed control at 70 g/ha: 95 to 100%
  pest or weed control at 140 g/ha: 95 to 100%
[1]; [7]
  pest or weed control at 70 g/ha: 75 to 84%
  pest or weed control at 140 g/ha: 85 to 94%
[1]; [8]
  pest or weed control at 70 g/ha: 85 to 94%
  pest or weed control at 140 g/ha: 85 to 94%
[1]; [9]
  pest or weed control at 70 g/ha: 30 to 44%
  pest or weed control at 140 g/ha: 45 to 59%
[2]; [10]
  pest or weed control at 70 g/ha: 0 to 29%
  pest or weed control at 140 g/ha: 0 to 29%
[2]; [11]
  pest or weed control at 70 g/ha: 30 to 44%
  pest or weed control at 140 g/ha: 45 to 59%
[2]; [12]
  pest or weed control at 70 g/ha: 60 to 74%
  pest or weed control at 140 g/ha: 75 to 84%
[2]; [13]
  pest or weed control at 70 g/ha: 0 to 29%
  pest or weed control at 140 g/ha: 0 to 29%
[2]; [15]
  pest or weed control at 70 g/ha: 0 to 29%
  pest or weed control at 140 g/ha: 0 to 29%
[2]; [16]
  pest or weed control at 70 g/ha: 0 to 29%
  pest or weed control at 140 g/ha: 0 to 29%
[2]; [17]
  pest or weed control at 70 g/ha: 0 to 29%
  pest or weed control at 140 g/ha: 45 to 59%

## COc1nc(C(F)(F)F)ccc1-c1cc(N)c(Cl)c(C(=O)O)n1 [Compound 65]
other
  melting point: 169 to 171 °C
[1]; [3]
  pest or weed control at 70 g/ha: 0 to 29%
  pest or weed control at 140 g/ha: 0 to 29%
[1]; [4]
  pest or weed control at 70 g/ha: 85 to 94%
  pest or weed control at 140 g/ha: 85 to 94%
[1]; [5]
  pest or weed control at 70 g/ha: 0 to 29%
  pest or weed control at 140 g/ha: 0 to 29%
[1]; [6]
  pest or weed control at 70 g/ha: 0 to 29%
  pest or weed control at 140 g/ha: 0 to 29%
[1]; [7]
  pest or weed control at 70 g/ha: 0 to 29%
  pest or weed control at 140 g/ha: 0 to 29%
[1]; [8]
  pest or weed control at 70 g/ha: 45 to 59%
  pest or weed control at 140 g/ha: 45 to 59%
[1]; [9]
  pest or weed control at 70 g/ha: 0 to 29%
  pest or weed control at 140 g/ha: 0 to 29%
[2]; [10]
  pest or weed control at 70 g/ha: 0 to 29%
  pest or weed control at 140 g/ha: 0 to 29%
[2]; [11]
  pest or weed control at 70 g/ha: 0 to 29%
  pest or weed control at 140 g/ha: 0 to 29%
[2]; [12]
  pest or weed control at 70 g/ha: 0 to 29%
  pest or weed control at 140 g/ha: 0 to 29%
[2]; [13]
  pest or weed control at 70 g/ha: 0 to 29%
  pest or weed control at 140 g/ha: 0 to 29%
[2]; [14]
  pest or weed control at 70 g/ha: 0 to 29%
  pest or weed control at 140 g/ha: 0 to 29%
[2]; [15]
  pest or weed control at 70 g/ha: 0 to 29%
  pest or weed control at 140 g/ha: 0 to 29%
[2]; [16]
  pest or weed control at 70 g/ha: 0 to 29%
  pest or weed control at 140 g/ha: 0 to 29%
[2]; [17]
  pest or weed control at 70 g/ha: 0 to 29%
  pest or weed control at 140 g/ha: 0 to 29%
